This note sets out measurements from ChEMBL document CHEMBL4138123, “Design, synthesis and biological evaluation of novel pyrazolochalcones as potential modulators of PI3K/Akt/mTOR pathway and inducers of apoptosis in breast cancer cells” (Eur J Med Chem, 2017).

Molecules are shown by their SMILES.

Type in all cases: functional
The subject of experiment [1] is HOP-92. Kind of experiment: Cytotoxicity against human HOP92 cells assessed as growth inhibition after 48 hrs by sulforhodamine B assay. Conditions: HOP-92, 48 h. For orientation: Sulforhodamine B stains cellular protein and so reports cell mass.
Experiment [2] concerns SF-295. Kind of experiment: Cytotoxicity against human SF295 cells assessed as growth inhibition after 48 hrs by sulforhodamine B assay. Conditions: SF-295, 48 h.
Experiment [3] has as its system SK-MEL-2. Nature of the experiment: Cytotoxicity against human SK-MEL-2 cells assessed as cell growth at 0.01 uM after 48 hrs by sulforhodamine B assay relative to control. Conditions: SK-MEL-2, 48 h, read-out: Activity.
Experiment [4] deals with LOX IMVI. Nature of the experiment: Cytotoxicity against human LOXIMVI cells assessed as cell growth at 0.01 uM after 48 hrs by sulforhodamine B assay relative to control. Conditions: read-out: Activity.
The subject of experiment [5] is SF-295. Nature of the experiment: Cytotoxicity against human SF295 cells assessed as cell growth at 0.01 uM after 48 hrs by sulforhodamine B assay relative to control. Conditions: SF-295, 48 h, read-out: Activity.
Experiment [6] deals with HOP-92. Nature of the experiment: Cytotoxicity against human HOP92 cells assessed as cell growth at 0.01 uM after 48 hrs by sulforhodamine B assay relative to control. Conditions: HOP-92, 48 h, read-out: Activity.
Experiment [7] concerns HOP-92. Kind of experiment: Cytotoxicity against human HOP92 cells assessed as cell growth at 0.1 uM after 48 hrs by sulforhodamine B assay relative to control. Conditions: HOP-92, 48 h, read-out: Activity.
In experiment [8] the test system is SF-295. Nature of the experiment: Cytotoxicity against human SF295 cells assessed as cell growth at 0.1 uM after 48 hrs by sulforhodamine B assay relative to control. Conditions: SF-295, 48 h, read-out: Activity.
Experiment [9] concerns LOX IMVI. Nature of the experiment: Cytotoxicity against human LOXIMVI cells assessed as cell growth at 0.1 uM after 48 hrs by sulforhodamine B assay relative to control. Conditions: read-out: Activity.
Experiment [10] relates to SK-MEL-2. Nature of the experiment: Cytotoxicity against human SK-MEL-2 cells assessed as cell growth at 0.1 uM after 48 hrs by sulforhodamine B assay relative to control. Conditions: SK-MEL-2, 48 h, read-out: Activity.
For experiment [11], the system named is HOP-92. Kind of experiment: Cytotoxicity against human HOP92 cells assessed as cell growth at 1 uM after 48 hrs by sulforhodamine B assay relative to control. Conditions: HOP-92, 48 h, read-out: Activity.
Experiment [12] deals with SF-295. Nature of the experiment: Cytotoxicity against human SF295 cells assessed as cell growth at 1 uM after 48 hrs by sulforhodamine B assay relative to control. Conditions: SF-295, 48 h, read-out: Activity.
Experiment [13] relates to LOX IMVI. Kind of experiment: Cytotoxicity against human LOXIMVI cells assessed as cell growth at 1 uM after 48 hrs by sulforhodamine B assay relative to control. Conditions: read-out: Activity.
The subject of experiment [14] is SK-MEL-2. Kind of experiment: Cytotoxicity against human SK-MEL-2 cells assessed as cell growth at 1 uM after 48 hrs by sulforhodamine B assay relative to control. Conditions: SK-MEL-2, 48 h, read-out: Activity.
For experiment [15], the system named is HOP-92. Kind of experiment: Cytotoxicity against human HOP92 cells assessed as cell growth at 10 uM after 48 hrs by sulforhodamine B assay relative to control. Conditions: HOP-92, 48 h, read-out: Activity.
Experiment [16] relates to SF-295. Nature of the experiment: Cytotoxicity against human SF295 cells assessed as cell growth at 10 uM after 48 hrs by sulforhodamine B assay relative to control. Conditions: SF-295, 48 h, read-out: Activity.
The test system of experiment [17] is LOX IMVI. Nature of the experiment: Cytotoxicity against human LOXIMVI cells assessed as cell growth at 10 uM after 48 hrs by sulforhodamine B assay relative to control. Conditions: read-out: Activity.
In experiment [18] the test system is SK-MEL-2. Nature of the experiment: Cytotoxicity against human SK-MEL-2 cells assessed as cell growth at 10 uM after 48 hrs by sulforhodamine B assay relative to control. Conditions: SK-MEL-2, 48 h, read-out: Activity.
Experiment [19] concerns HOP-92. Kind of experiment: Cytotoxicity against human HOP92 cells assessed as cell growth at 100 uM after 48 hrs by sulforhodamine B assay relative to control. Conditions: HOP-92, 48 h, read-out: Activity.
The test system of experiment [20] is SF-295. Kind of experiment: Cytotoxicity against human SF295 cells assessed as cell growth at 100 uM after 48 hrs by sulforhodamine B assay relative to control. Conditions: SF-295, 48 h, read-out: Activity.
For experiment [21], the system named is LOX IMVI. Kind of experiment: Cytotoxicity against human LOXIMVI cells assessed as cell growth at 100 uM after 48 hrs by sulforhodamine B assay relative to control. Conditions: read-out: Activity.
In experiment [22] the test system is SK-MEL-2. Nature of the experiment: Cytotoxicity against human SK-MEL-2 cells assessed as cell growth at 100 uM after 48 hrs by sulforhodamine B assay relative to control. Conditions: SK-MEL-2, 48 h, read-out: Activity.
The subject of experiment [23] is SNB-75. Kind of experiment: Cytotoxicity against human SNB75 cells assessed as growth inhibition after 48 hrs by sulforhodamine B assay. Conditions: SNB-75, 48 h.
The subject of experiment [24] is CAKI-1. Kind of experiment: Cytotoxicity against human Caki1 cells assessed as growth inhibition after 48 hrs by sulforhodamine B assay. Conditions: CAKI-1, 48 h.
For experiment [25], the system named is CAKI-1. Nature of the experiment: Cytotoxicity against human Caki1 cells assessed as cell growth at 0.01 uM after 48 hrs by sulforhodamine B assay relative to control. Conditions: CAKI-1, 48 h, read-out: Activity.
Experiment [26] has as its system SNB-75. Nature of the experiment: Cytotoxicity against human SNB75 cells assessed as cell growth at 0.01 uM after 48 hrs by sulforhodamine B assay relative to control. Conditions: SNB-75, 48 h, read-out: Activity.
For experiment [27], the system named is SNB-75. Nature of the experiment: Cytotoxicity against human SNB75 cells assessed as cell growth at 0.1 uM after 48 hrs by sulforhodamine B assay relative to control. Conditions: SNB-75, 48 h, read-out: Activity.
Experiment [28] concerns CAKI-1. Nature of the experiment: Cytotoxicity against human Caki1 cells assessed as cell growth at 0.1 uM after 48 hrs by sulforhodamine B assay relative to control. Conditions: CAKI-1, 48 h, read-out: Activity.
Experiment [29] concerns SNB-75. Kind of experiment: Cytotoxicity against human SNB75 cells assessed as cell growth at 1 uM after 48 hrs by sulforhodamine B assay relative to control. Conditions: SNB-75, 48 h, read-out: Activity.
In experiment [30] the test system is CAKI-1. Kind of experiment: Cytotoxicity against human Caki1 cells assessed as cell growth at 1 uM after 48 hrs by sulforhodamine B assay relative to control. Conditions: CAKI-1, 48 h, read-out: Activity.
In experiment [31] the test system is SNB-75. Kind of experiment: Cytotoxicity against human SNB75 cells assessed as cell growth at 10 uM after 48 hrs by sulforhodamine B assay relative to control. Conditions: SNB-75, 48 h, read-out: Activity.
Experiment [32] relates to SNB-75. Kind of experiment: Cytotoxicity against human SNB75 cells assessed as cell growth at 100 uM after 48 hrs by sulforhodamine B assay relative to control. Conditions: SNB-75, 48 h, read-out: Activity.
For experiment [33], the system named is CAKI-1. Kind of experiment: Cytotoxicity against human Caki1 cells assessed as cell growth at 100 uM after 48 hrs by sulforhodamine B assay relative to control. Conditions: CAKI-1, 48 h, read-out: Activity.

The term GI50 denotes the concentration at which growth is held to half of that of the control. One may read the TGI as the concentration at which net growth stops. What is called LC50 is the concentration lethal to half of the exposed cells or organisms. On to `COc1cc(-c2cc(/C=C/C(=O)c3ccc(N)cc3)[nH]n2)cc(OC)c1OC`, for which the GI50 in the experiment with HOP-92 [1] was 3.68 µM; with SF-295 [2], 2.55 µM. The TGI in the experiment on HOP-92 [1] turned out to be 27.6 µM; in the experiment on SF-295 [2] it was 10.9 µM. Also, in the experiment with HOP-92 [1] (read-out: LC50 (the source's name)), the CC50 is over 100 µM. Also, the LC50 in the experiment on SF-295 [2] is 34.8 µM. Further, the growth at 0.01 µM in the experiment on SK-MEL-2 [3] stood at 106%; in the experiment on LOX IMVI [4], 98%; with SF-295 [5], 88%; in the experiment with HOP-92 [6] it was 88%. Also, the growth at 0.1 µM with HOP-92 [7] turned out to be 82%; with SF-295 [8], 89%; with LOX IMVI [9], 99%; in the experiment with SK-MEL-2 [10], 111%. Further, the growth at 1 µM is 79% in the experiment on HOP-92 [11], 82% in the experiment with SF-295 [12], 83% with LOX IMVI [13] and 104% with SK-MEL-2 [14]. Moreover, the growth at 10 µM in the experiment on HOP-92 [15] is 28%; in the experiment with SF-295 [16], 4%; in the experiment on LOX IMVI [17], -78%; in the experiment on SK-MEL-2 [18], -15%. Moreover, the growth at 100 µM in the experiment on HOP-92 [19] is -35%; in the experiment with SF-295 [20], -95%; with LOX IMVI [21], -82%; with SK-MEL-2 [22], -85%.
For `COc1cc2c(cc1OC)C(=O)/C(=C/c1cc(-c3ccc4c(c3)OCO4)n[nH]1)C2`, the values for the GI50 in the experiment on SF-295 [2], in the experiment on SNB-75 [23] and in the experiment on CAKI-1 [24] were 1.64 µM, 1.65 µM and 1.5 µM, respectively. Further, the LC50 in the experiment with SF-295 [2] was determined as 6.5 µM; with CAKI-1 [24] it was 6 µM. Moreover, the values for the TGI in the experiment with SF-295 [2], in the experiment with SNB-75 [23] and with CAKI-1 [24] were 3.26 µM, 3.02 µM and 3 µM, respectively. Moreover, the LC50 (concentration killing 50% of cells) in the experiment on SNB-75 [23] was determined as 5.51 µM. Besides, the growth at 0.01 µM in the experiment on CAKI-1 [25] came out at 98%; in the experiment with SNB-75 [26] it was 85%; in the experiment with SF-295 [5], 95%. The results for the growth at 0.1 µM in the experiment with SF-295 [8], with SNB-75 [27] and in the experiment on CAKI-1 [28] were 95%, 94% and 97%, respectively. The growth at 1 µM stood at 86% in the experiment with SF-295 [12], 92% with SNB-75 [29] and 79% in the experiment on CAKI-1 [30]. Besides, the growth at 10 µM in the experiment with SF-295 [16] is -81%; with SNB-75 [31] it was -100%. For the same compound, the values for the growth at 100 µM in the experiment on SF-295 [20], in the experiment with SNB-75 [32] and with CAKI-1 [33] were -93%, -96% and -81%, respectively.
For `COc1cc(-c2cc(/C=C/C(=O)c3ccc4c(c3)OCO4)[nH]n2)cc(OC)c1OC`, the LC50 in the experiment on CAKI-1 [24] was over 100 µM. The TGI with CAKI-1 [24] is over 100 µM. In addition, the growth at 0.01 µM in the experiment with CAKI-1 [25] is 96%; in the experiment with SK-MEL-2 [3], 90%; in the experiment on LOX IMVI [4] it was 93%. Moreover, the growth at 0.1 µM with LOX IMVI [9] is 93%; with SK-MEL-2 [10] it was 93%; with CAKI-1 [28], 96%. In addition, the growth at 1 µM with LOX IMVI [13] is 91%; with SK-MEL-2 [14] it was 101%; with CAKI-1 [30], 92%. For the same compound, the values for the growth at 10 µM in the experiment on LOX IMVI [17] and in the experiment with SK-MEL-2 [18] were -67% and 51%, respectively. In addition, the growth at 100 µM was -54% in the experiment with LOX IMVI [21], -60% with SK-MEL-2 [22] and 27% in the experiment with CAKI-1 [33].
Take `COc1ccc(-c2cc(/C=C/C(=O)c3ccc(N)cc3)[nH]n2)cc1`: the results for the GI50 with SF-295 [2], in the experiment with SNB-75 [23] and with CAKI-1 [24] were 3.09 µM, 2.25 µM and 1.32 µM, respectively. The LC50 in the experiment with SF-295 [2] was found to be 49.6 µM; in the experiment with CAKI-1 [24], 64.3 µM. Also, the TGI in the experiment with SF-295 [2] worked out at 13.1 µM; in the experiment with SNB-75 [23], 11.4 µM; in the experiment on CAKI-1 [24] it was 11.1 µM. In addition, the LC50 (concentration killing 50% of cells) in the experiment on SNB-75 [23] came out at 35.3 µM. The growth at 0.01 µM with CAKI-1 [25] is 95%; in the experiment with SNB-75 [26], 85%; with SF-295 [5] it was 93%. In addition, the values for the growth at 0.1 µM in the experiment on SF-295 [8], in the experiment on SNB-75 [27] and in the experiment on CAKI-1 [28] were 95%, 88% and 97%, respectively. For the same compound, the growth at 1 µM in the experiment with SF-295 [12] was found to be 88%; in the experiment with SNB-75 [29] it was 74%; with CAKI-1 [30], 56%. For the same compound, the growth at 10 µM in the experiment on SF-295 [16] is 10%; in the experiment on SNB-75 [31], 6%. Also, the growth at 100 µM in the experiment with SF-295 [20] was -76%; in the experiment with SNB-75 [32], -96%; in the experiment with CAKI-1 [33] it was -63%.
